Assay results from patent US8551453B2, “Aromatic triamide-lanthanide complexes” (The Regents of the University of California, priority 2003, dated 2013).

Experiments:
Type in all cases: physicochemical
[1] = Stability constants of the Tb complex by spectrophotometric titration
Description: (§1) The stability constants of the lanthanide complexes formed with the ligand H22TAMDIAM(9A) were estimated through spectrophotometric titrations.
(§2) The stability constants of the Eu and Tb complexes formed with the ligand H22TAMDIAM (9A) have been calculated form these experiments and the results are reported in the table.

[2] = Stability constants of the Eu complex by spectrophotometric titration
Method: FIG. 3 Spectrophotometric titration of a 1:1 ratio Eu:H22MeTIAM (9A): I=0.1, 25° C., optical path=1 cm.
as §1, §2

[3] = Protonation constants of the ligand by spectrophotometric titration; conditions: free ligand; for PKa: IAM

In the case of H4H(2,2)TIAM [Compound 9A], the “Log[…]11-1” value [1] is reported as 12.60(7), the “Log[…]11-2” value [1] is reported as 3.62(9) and the “Log[…]110” value [1] is reported as 17.85(3). For the same substance, the pKa ([1]; line Log[…]11-1) was 5.25, the pKa ([1]; line Log[…]11-2) was 8.98 and the pM ([1]; n = 3) was “Tb, pM = 19.7,n = 3”. The “Log[…]11-1” value ([2]; 1:1 Eu:ligand, I=0.1, 25° C.) was 11.04(2), the “Log[…]11-2” value ([2]; 1:1 Eu:ligand, I=0.1, 25° C.) was 1.98(10) and the “Log[…]110” value ([2]; 1:1 Eu:ligand, I=0.1, 25° C.) was 17.29(1). For the same substance, the pKa ([2]; line Log[…]11-1) was 6.25, the pKa ([2]; line Log[…]11-2) was 9.06 and the pM ([2]; n = 3) was “Eu, pM = 18.2, n = 3”. For the same substance, the “Proton Affinity Log […]011” value ([3]; cumulative protonation constant, 1 proton (phenolic)) was 8.58(2), the “Proton Affinity Log […]012” value ([3]; cumulative protonation constant, 2 protons) was 15.17(3) and the “Proton Affinity Log […]013” value ([3]; cumulative protonation constant, 3 protons) was 20.38(4). For the same substance, the “Proton Affinity Log […]014” value ([3]; cumulative protonation constant, 4 protons) was 24.46(6), the PKa ([3]; first phenolic proton (line Log […]011)) was 8.58 and the PKa ([3]; fourth phenolic proton (line Log […]014)) was 4.08. The PKa ([3]; second phenolic proton (line Log […]012)) was 6.59 and the PKa ([3]; third phenolic proton (line Log […]013)) was 5.21.
